# pEC50: −log10 of the molar value.
# Experiments:
# MLK1 = MLK1 (Homo sapiens, UniProt P80192); settings: MLK active site; cited from earlier work
# TNFα = settings: standard in vitro pharmacological testing procedures (WO 97/49406); cited from earlier work
# asthma patients [1] = assay: Phase II clinical study CEP-1347-201: peak expiratory flow rate (PEFR; ANCOVA at week 8 and longitudinal model of daily PEFR); type: in vivo, human; settings: p=0.15; dose-response shape very similar to morning PEFR
# [2] = target: choline acetyltransferase (ChAT); settings: cited from earlier work
# asthma patients [3] = assay: Phase II clinical study CEP-1347-201: peak expiratory flow rate (PEFR; ANCOVA at week 8 and longitudinal model of daily PEFR); type: in vivo, human; settings: for PEFR Change from Baseline at Week 8, LS Mean: ANCOVA; for Mean model predicted PEFR adjusted for baseline percent predicted PEFR, mean: morning PEFR
# Source text: Two analyses of PEFR were pre-specified in the SAP, an ANCOVA analysis of the change from baseline at week 8 and a model based longitudinal analysis of the daily PEFR measurements. Results from an ANCOVA (analysis of covariance) including treatment group as a factor and the baseline value as a covariate are presented in Table 19. The ANCOVA results reported in Table 19 were limited to change from baseline at week 8 PEFR measurements from office based spirometry assessments. Patients were also instructed to perform peak flow rate assessments at home, once in the morning and once in the evening using a hand-held peak flow device. PEFR measures were then recorded by the patient into a diary. A total of 6878 morning (5 am-12 noon) observations were collected from 149 patients during the treatment phase of the study (56 days in duration) corresponding to approximately 46.2 observations per subject. […] The endpoint used in this analysis was change from baseline in morning PEFR. While the model based analysis can be difficult to understand, this approach takes advantage of the rich daily PEFR data set (6878 observations) whereas the ANCOVA was limited to the week 8 PEFR (146 observations). The model included a placebo and treatment component. […] This common phenomenon is typically referred to as “regression to the mean”. In addition, the onset of this placebo effect appeared to occur over time. Therefore, a rate constant was added to the model to account for the change in placebo effect over time. […] Placeboss=θ(1)+η(1)+θ(9)*baseline % predicted PEFR (Eq. 3) Placebot=Placeboss*(1-exp(-θ(5)*DAY)) (Eq. 4) […] To allow for a less than immediate CEP-1347 effect, a rate constant controlling the onset of treatment effect was also included in the treatment model. In addition, it was assumed that the ability of a patient to responds to drug treatment was proportional to the patients baseline % predicted PEFR. In other words, patients with normal lung function at baseline would be expected to have little effect whereas those with poor lung function at baseline would be expected to have a larger effect. This model component is similar to a treatment by baseline interaction in an ANCOVA analysis. Equation describes the treatment time course model: […]=θ(n)*ROOM*(1-(-exp(-θ(10)*DAY)) (Eq. 5) Where, […] the treatment effect at time t adjusted for the patient's baseline % predicted PEFR and duration of drug therapy, θ(n) is the fixed effect associated with n treatment group; either 10, 25, or 50 mgBID treatment groups, ROOM scales the magnitude of the treatment effect based on the baseline % predicted PEFR (i.e., 1-baseline predicted; baseline by treatment interaction), θ(10) is the rate constant governing the onset of treatment effect. The overall effect at time t combines the placebo component and the drug component (Equation 6): […]=Placebot+Treatment1+ε(1) (Eq. 6) […] Model selection was done in the same manner as described for the MCT analysis. In addition, a randomization test was undertaken to more accurately determine the p value comparing the full model (run #14 included a treatment component) to the reduced model (run #5; placebo model only). […] The 5th and 95th percentiles for the predicted values were identified from the pool of predicted values to establish a 90% prediction interval around the mean model prediction (Table 21).
# ICAM-1 = assay: Phase II clinical study CEP-1347-201: additional biomarkers of inflammation; type: in vivo, human; settings: prior to and 4 and 8 weeks after study drug administration; CEP-1347 vs placebo groups
# Experimental: (§1) Biomarkers of inflammation were measured prior to and 4 and 8 weeks after study drug administration.
# VCAM-1 = assay: as above; type: in vivo, human; settings: prior to and 4 and 8 weeks after study drug administration; CEP-1347 vs placebo groups
# Experimental: as §1
# MCP-1 = assay: as above; type: in vivo, human; settings: prior to and 4 and 8 weeks after study drug administration; CEP-1347 vs placebo groups
# Experimental: as §1
# VEGF = assay: as above; type: in vivo, human; settings: prior to and 4 and 8 weeks after study drug administration; CEP-1347 vs placebo groups
# Experimental: as §1
# IL-6 = assay: Phase II clinical study CEP-1347-201: sputum IL-6; type: in vivo, human; settings: samples not collected in a systematic manner
# IL-8 = assay: Phase II clinical study CEP-1347-201: sputum IL-8; type: in vivo, human; settings: samples not collected in a systematic manner
# asthma patients [4] = assay: Phase II clinical study CEP-1347-201: asthma exacerbations and airway remodeling; type: in vivo, human
# Source text: However, given the near normal lung function of the population evaluated in this exploratory Phase 2 trial, positive trends can only be established with respect to the effects of CEP-1347 in asthma due to lack of statistical significance in certain aspects of the study. Furthermore, the trial patient numbers for at-risk haplotype carriers were not large enough to achieve significant power to adequately test the effect on these haplotype positive patients. The asthma patients enrolled into CEP-1347-201 were well treated with near normal lung function and any apparent lack of treatment effect could be attributed, in part, to deficiencies in study design as opposed to a lack of CEP-1347 effect.
# The term “airway remodeling” in bronchial asthma refers to structural changes that occur in conjunction with, or because of, chronic airway inflammation. Airway remodeling results in alterations in the airway epithelium, lamina propria, and submucosa, leading to thickening of the airway wall. Another common attribute of asthmatic airways is eosinophilia. Eosinophils expressing the CCR3 chemokine receptor are drawn from pulmonary circulation primarily by Eotaxin/CCL11, which is overexpressed in asthmatic respiratory membrane epithelial cells, fibroblasts, and smooth muscle cells. […]
# IL-1β = settings: lipopolysaccharide challenge; cited from earlier work
# Sequence of MLK1 (P80192 whole entry): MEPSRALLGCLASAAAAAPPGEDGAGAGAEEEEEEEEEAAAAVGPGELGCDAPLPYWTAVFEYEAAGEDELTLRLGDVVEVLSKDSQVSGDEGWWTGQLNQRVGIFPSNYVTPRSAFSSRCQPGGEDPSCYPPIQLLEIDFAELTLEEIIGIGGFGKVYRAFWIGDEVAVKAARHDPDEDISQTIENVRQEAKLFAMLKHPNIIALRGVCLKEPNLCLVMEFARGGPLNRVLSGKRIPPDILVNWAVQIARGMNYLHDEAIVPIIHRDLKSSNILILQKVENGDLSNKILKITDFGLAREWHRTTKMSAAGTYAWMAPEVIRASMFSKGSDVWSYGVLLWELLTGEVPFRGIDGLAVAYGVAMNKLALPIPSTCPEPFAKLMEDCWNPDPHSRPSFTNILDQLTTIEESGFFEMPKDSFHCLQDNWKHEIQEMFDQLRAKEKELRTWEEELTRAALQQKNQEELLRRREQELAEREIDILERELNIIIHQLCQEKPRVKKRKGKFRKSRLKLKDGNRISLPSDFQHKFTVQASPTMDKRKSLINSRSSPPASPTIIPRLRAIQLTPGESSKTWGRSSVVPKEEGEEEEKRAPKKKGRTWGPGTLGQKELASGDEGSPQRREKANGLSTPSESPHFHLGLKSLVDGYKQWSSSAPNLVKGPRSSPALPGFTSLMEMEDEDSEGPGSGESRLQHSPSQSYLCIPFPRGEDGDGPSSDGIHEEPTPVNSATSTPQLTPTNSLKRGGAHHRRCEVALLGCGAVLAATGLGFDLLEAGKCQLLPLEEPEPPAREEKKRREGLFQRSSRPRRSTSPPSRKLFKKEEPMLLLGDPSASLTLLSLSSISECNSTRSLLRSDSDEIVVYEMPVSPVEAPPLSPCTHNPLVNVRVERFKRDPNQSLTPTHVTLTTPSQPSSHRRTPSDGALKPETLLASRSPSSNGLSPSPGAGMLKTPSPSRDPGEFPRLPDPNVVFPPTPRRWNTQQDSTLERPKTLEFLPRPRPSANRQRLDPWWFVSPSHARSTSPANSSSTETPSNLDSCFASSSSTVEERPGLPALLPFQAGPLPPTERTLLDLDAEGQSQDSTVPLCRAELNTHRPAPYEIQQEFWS
smiles,measurement,setting,value
CCSCc1ccc2c(c1)c1c3c(c4c5cc(CSCC)ccc5n5c4c1n2C1CC(O)(C(=O)OC)C5(C)O1)CNC3=O (stereo not drawn) [CEP-1347],"kinetics of inhibition of MLK kinases, mode of action",MLK1,competitive with the binding of adenosine triphosphate
same,production of TNFα by cultured cells,TNFα,inhibit the production
same,"daily evening PEFR, CEP-1347 effect in longitudinal model",asthma patients [1],borderline significant
same,pEC50,"[2]; greater potency than K-252a, read-out: potency (EC50) in spinal cord ChAT assays",7.30
same,efficacy in spinal cord ChAT assays,[2]; greater than K-252a,250 % of control
same,"PEFR Change from Baseline at Week 8, LS Mean","asthma patients [3]; 10 mg BID, p 0.30",0.01
same,"PEFR Change from Baseline at Week 8, LS Mean","asthma patients [3]; 25 mg BID, p 1.0",0.03
same,"PEFR Change from Baseline at Week 8, LS Mean","asthma patients [3]; 50 mg BID, p 0.77",0.04
same,"daily morning PEFR change from baseline, longitudinal mixed effects model with CEP-1347 treatment component vs placebo only model","asthma patients [3]; 10, 25, 50 mg BID, 56 days, p=0.012",statistically significant improvement in the description of the data
same,"Mean model predicted PEFR adjusted for baseline percent predicted PEFR, mean","asthma patients [3]; Dose 20, BL % pred PEF 70",19.3
same,"Mean model predicted PEFR adjusted for baseline percent predicted PEFR, mean","asthma patients [3]; Dose 20, BL % pred PEF 80",16.6
same,"Mean model predicted PEFR adjusted for baseline percent predicted PEFR, mean","asthma patients [3]; Dose 20, BL % pred PEF 96",12.2
same,"Mean model predicted PEFR adjusted for baseline percent predicted PEFR, mean","asthma patients [3]; Dose 50, BL % pred PEF 70",38.6
same,"Mean model predicted PEFR adjusted for baseline percent predicted PEFR, mean","asthma patients [3]; Dose 50, BL % pred PEF 80",29.4
same,"Mean model predicted PEFR adjusted for baseline percent predicted PEFR, mean","asthma patients [3]; Dose 50, BL % pred PEF 96",14.8
same,"Mean model predicted PEFR adjusted for baseline percent predicted PEFR, mean","asthma patients [3]; Dose 100, BL % pred PEF 70",99.5
same,"Mean model predicted PEFR adjusted for baseline percent predicted PEFR, mean","asthma patients [3]; Dose 100, BL % pred PEF 80",70.0
same,"Mean model predicted PEFR adjusted for baseline percent predicted PEFR, mean","asthma patients [3]; Dose 100, BL % pred PEF 96",22.9
same,concentration of ICAM-1,ICAM-1,No differences
same,concentration of VCAM-1,VCAM-1,No differences
same,concentration of MCP-1,MCP-1,No differences
same,concentration of VEGF,VEGF,No differences
same,sputum IL-6 (ANCOVA),IL-6,no clear treatment related trends or statistically significant changes
same,sputum IL-8 (ANCOVA),IL-8,no clear treatment related trends or statistically significant changes
same,asthma exacerbations,"asthma patients [4]; 50 mg BID group, positive trend only",reduction of exacerbations
same,progression of airway remodeling,asthma patients [4]; in particular with the 25 mg BID dose (FIG. 13),Positive effects
same,production of IL-1β by mice after LPS challenge,IL-1β,reduces production
